Test results published in PMC2674291 (The Open Biochemistry Journal, 2009).

What was measured:
[1] = tested on: Phenoloxidase of the resistant strain (POr); settings: 20 mM PBS pH 6.5; room temperature; partially purified enzyme
[2] = tested on: Phenoloxidase of the susceptible strain (POs); assay: absorbance at […] nm, initial rate, microtiter plate; type: biochemical, Plutella xylostella; settings: 20 mM PBS pH 6.5; room temperature; partially purified enzyme

Work on `N[C@@H](Cc1ccc(O)c(O)c1)C(=O)O` [L-DOPA] yielded a Km [1] of 1110 µM and a Km [2] of 1110 µM.
